In data set [1] the test system is topoisomerase I. Nature of the data set: Topoisomerase I mediated DNA cleavage (cleavable complex induction). The format is biochemical. Particulars: for distribution of cleavage sites vs camptothecin or SN-38 / induction of cleavable complex formation: topoisomerase I; for induction of cleavable complex formation: 3'-32P-labeled oligonucleotide; for dose response with respect to inducing DNA fragmentation: FIG. 10. An excerpt:
(§1) Evaluation of the Relative Abilities of the Novel Polyamine Camptothecin Analogs to Induce Topoisomerase I Mediated DNA Single Strand Breaks. We have evaluated the abilities of the novel compounds of the present invention to inhibit the topoisomerase I enzyme. In these experiments the oligonucleotide was labeled at the 3'-end of the upper (scissile) strand with 32P-α-cordycepin and terminal transferase (Pommier, Y., Kohlhagen, G., Kohn, F., Leteurtre, F., Wani, M. C., and Wall, M. E. Proc. Natl. Acad. Sci. U.S.A. 92:8861-8865, 1995). Topoisomerase I (Top1) cleavage generates a 23mer that can be easily detected by electrophoresis and quantitated by Phosphorimager analysis. Tanizawa et al. (Tanizawa, A., Kohn, K. W., Kohlhagen, G., Leteurtre, F., and Pommier, Y. Biochemistry […]:7200-7206, 1995) have previously shown that camptothecin derivatives differ in the manner in which they stabilize the top1 cleavable complexes that they induce. The novel polyamine camptothecins of the present invention were compared in this assay. 0.35M NaCl was added to force top 1-mediated DNA religation and DNA cleavage was measured at various times after NaCl addition. FIG. 9 is a typical phosphoimager picture showing the timecourse of the effects of various camptothecins on the relaxation of DNA in the presence of topoisomerase I. Topoisomerase I-mediated cleavage generates DNA fragments that can be readily detected by electrophoresis and quantitated by phosphorimager analysis.
FIG. 10 is a phosphoimager picture showing the dose response of various camptothecin compounds described in the present invention on the relaxation of DNA in the presence of topoisomerase I. Topoisomerase I-mediated cleavage generates DNA fragments that can be readily detected by electrophoresis and quantitated by phosphorimager analysis as shown.
FIG. 11 contains a phosphoimager picture (bottom figure) showing the dose response effects of several of the novel polyamine camptothecins of the current invention on the relaxation of DNA in the presence of topoisomerase I. Topoisomerase I-mediated cleavage generates DNA fragments that can be readily detected by electrophoresis and quantitated by phosphorimager analysis (top figure).

Data set [2] concerns topoisomerase I. Description: Reversal of topoisomerase I cleavable complexes after NaCl addition. The format is biochemical. Particulars: after 0.35M NaCl; for stability of cleavable complexes: relative to camptothecin and SN-38.
Text: as §1

The conditions of data set [3]: cited from earlier work.
Data set [4] can be described thus: Excited-state lifetime of camptothecin. Conditions: 37° C. Type of data set: physicochemical. Here is the method: We have examined the excited-state lifetime values of camptothecin in PBS, glycerol, and methanol at 37° C. The lifetime values were determined to be 4.7 ns, 3.8 ns, and 3.5 ns, respectively.
For data set [5] the following is noted: aqueous medium; cited from earlier work.
Data set [6] in a line: Fluorescence anisotropy titration: association with electroneutral DMPC vesicles. The format is physicochemical. Conditions: PBS buffer, pH 7.4, physiological temperature, DMPC. On the procedure: (§2) Vesicle Preparation. Small unilamellar vesicle (SUV) suspensions were prepared the day of an experiment by the method of Burke et al. (T. G. Burke, A. K. Mishra, M. C. Wani, and M. E. Wall, Lipid Bilayer Partitioning and Stability of Camptothecin Drugs, Biochem., 32(20), 5352 (1993)). Briefly, stock lipid suspensions containing 200 mg/mL lipid in phosphate buffered saline (PBS, pH 7.4) were prepared by Vortex mixing for 5-10 min above the TM of the lipid. The lipid dispersions were then sonicated using a bath-type sonicator (Laboratory Supplies Co., Hicksville, N.Y.) for 3-4 h until they became optically clear. […] Each type of vesicle suspension was annealed for 30 min at 37° C. and then used in an experiment.
(§3) Fluorescence Instrumentation. Steady-state fluorescence measurements were obtained on a SLM Model 9850 spectrofluorometer with a thermostated cuvette compartment. This instrument was interfaced with an IBM PS/2 model 55 SX computer. Excitation and emission spectra were recorded with an excitation resolution of 8 nm and an emission resolution of 4 nm. In all cases spectra were corrected for background fluorescence and scatter from unlabeled lipids or from solvents by subtraction of the spectrum of a blank. Steady-state fluorescence intensity measurements were made in the absence of polarizers. Steady-state anisotropy (a) measurements were determined with the instrument in the "T-format" for simultaneous measurement of two polarized intensities. […] The anisotropy was calculated from a =(IVV -GIVH)/(IVV +2GIVH), where G=IHV /IHH and the subscripts refer to vertical and horizontal orientations of the excitation and emission polarizers, respectively.
(§4) Anisotropy measurements for camptothecins were conducted using exciting light in the range of 370 nm to 400 nm and long pass filters on each emission channel in order to isolate the drug's fluorescence signal from background scatter and/or residual fluorescence. […] The combination of exciting light and emission filters allowed us to adequately separate fluorescence from background signal. […]
A general note: Polarisation of emitted light reports the rotation of a fluorescent probe.

The nature of data set [7]: Fluorescence anisotropy titration: association with negatively-charged DMPG vesicles. The format is physicochemical. Conditions: PBS buffer, pH 7.4, physiological temperature, DMPG. Here is the method:
as §2, §3, §4

This is an account of results in patent publication US6291676A, “Water-soluble derivatives of camptothecin/homocamptothecin” (priority 2000, dated 2001).

Read-outs that look alike come from different tables or passages of the source.

For the compound `CC[C@@]1(O)C(=O)OCc2c1cc1n(c2=O)Cc2c-1nc1ccccc1c2CCCNC(=N)N` [compound #8], in data set [1], the “distribution of cleavage sites vs camptothecin or SN-38” value was “comparable to those generated by camptothecin or 7-ethyl-10-hydroxycamptothecin (SN-38)” and the “induction of cleavable complex formation” value was “good inducers of cleavable complex formation”. For the same compound, the “stability of cleavable complexes” value in data set [2] was “intermediate stabilities between camptothecin and SN-38”.

For the compound `CC[C@@]1(O)C(=O)OCc2c1cc1n(c2=O)Cc2cc3ccccc3nc2-1` [Camptothecin], the “enhancement in the anisotropy value upon binding to vesicles” value in data set [3] (vesicles of either DMPC or DMPG) is 21 fold. Besides, the “average excited-state lifetime, membrane-bound drug” value in data set [4] (DMPC bilayers) is on record as 3.7 ns. The excited-state lifetime in data set [4] (PBS) came to 4.7 ns; in data set [4] (glycerol), 3.8 ns; in data set [4] (methanol) it was 3.5 ns. Also, the “half-life of lactone ring hydrolysis” value in data set [5] is “approximately 20 min”. The “Overall association constant KDMPC” value in data set [6] was found to be 100 M⁻¹. The “Overall association constant KDMPG” value in data set [7] stood at 100 M⁻¹.

With `CC[C@@]1(O)C(=O)OCc2c1cc1n(c2=O)Cc2c-1nc1ccccc1c2CCN=[N+]=[N-]` [7-(2-azidoethyl)], the “dose response with respect to inducing DNA fragmentation” value in data set [1] was “particularly good dose response”.

For `CC[C@@]1(O)C(=O)OCc2c1cc1n(c2=O)Cc2cc3c(CN(C)C)c(O)ccc3nc2-1` [topotecan], in data set [3] (PBS), the “steady-state fluorescence anisotropy (a)” value is on record as 0.008. Moreover, the “increase of anisotropy value vs PBS” value in data set [3] (glycerol) is listed as 40 fold; in data set [3] (octanol) it was 9 fold.

With `CC[C@@]1(O)C(=O)OCc2c1cc1n(c2=O)Cc2c-1nc1ccccc1c2CCCCCN=[N+]=[N-]` [7-(5-azidopentyl)], the “dose response with respect to inducing DNA fragmentation” value in data set [1] is “particularly good dose response”.

Regarding `CC[C@@]1(O)C(=O)OCc2c1cc1n(c2=O)Cc2c-1nc1ccccc1c2CCNC(=N)N` [compound #9], in data set [1], the “distribution of cleavage sites vs camptothecin or SN-38” value was “comparable to those generated by camptothecin or 7-ethyl-10-hydroxycamptothecin (SN-38)” and the “induction of cleavable complex formation” value is listed as “good inducers of cleavable complex formation”. In data set [2], the “stability of cleavable complexes” value was “intermediate stabilities between camptothecin and SN-38”.

On to `CCc1c2c(nc3ccc(O)cc13)-c1cc3c(c(=O)n1C2)COC(=O)[C@]3(O)CC` [SN-38, 7-ethyl-10-hydroxycamptothecin, reference compound], for which the “reversal of cleavable complexes” value in data set [2] (compared with camptothecin) is reported as “reversed more slowly than those induced by camptothecin”.
